The assay deals with T1, human TSHR (Homo sapiens, UniProt P16473).
T1 construct: expressed in transfected cells
The assay is described as follows: Measurement of antagonist activity using TSH-induced cAMP production in human TSHR-stably expressing CHO cells. In kind it is cell-based. As to conditions: human TSH final concentration 50 ng/mL. The procedure:
Measurement of Antagonist Activity Using TSH-induced cAMP Production in Human TSHR-stably Expressing CHO Cells as an Indicator
A gene sequence of human TSHR (reference number NM_000369.2) was inserted into a multiple cloning site of pcDNA3.1(+). The prepared plasmid vector was introduced into CHO cells by a lipofection method to establish human TSHR stably expressing CHO cells. The obtained cells were seeded in a poly-D-lysine-coated 96-well plate at 5 x 10^4 cells/well, and cultured for 1 day in F12 medium containing 10% FBS, 400 µg/mL G418, 50 U/mL penicillin, and 50 µg/mL streptomycin under conditions of 37°C and 5% CO2. After removing a medium, the cells were washed twice with 100 µL per well of an assay buffer (Hanks' Balanced Salt Solution containing 20 mM HEPES and 1 mM IBMX). 30 µL of an assay buffer containing a test compound was added to a well, and the mixture was incubated at room temperature for 15 minutes. Next, 30 µL of an assay buffer containing human TSH (R&D Systems, Inc., final concentration 50 ng/mL) was added, and the mixture was incubated at 37°C for 1 hour. The supernatant was removed, and Lysis and Detection Buffer 2 (Cisbio) was added to prepare a cell lysate by incubating at room temperature for 1 hour. According to the instructions for use of a cAMP Gs HiRange kit (Cisbio), a cell lysate was reacted with d2-labeled cAMP and an anti-cAMP Europium Cryptate labeled antibody (Cisbio) in a 384-well white microplate. Next, a fluorescence intensity ratio (measurement wavelengths 665 nm/620 nm) was measured using a multiplate reader (PHERAstar FSX, BMG LABTECH Japan). A fluorescence intensity ratio of each sample was converted into a cAMP content using a standard curve. A cAMP content was converted into a percentage of a control value, and a cAMP production rate was calculated. Using Prism (Graph Pad Software Inc.), a cAMP production rate was plotted against a test compound concentration, and an IC50 value was calculated. The IC50 of each test compound is shown in the above tables. In the tables, IC50 < 3.0 µM was denoted as A, and 3.0 µM ≤ IC50 < 30 µM was denoted as B. The case where activity was observed but an IC50 value could not be calculated was denoted as C.

Molecules are shown by their SMILES.

T1 sequence (P16473 21-764): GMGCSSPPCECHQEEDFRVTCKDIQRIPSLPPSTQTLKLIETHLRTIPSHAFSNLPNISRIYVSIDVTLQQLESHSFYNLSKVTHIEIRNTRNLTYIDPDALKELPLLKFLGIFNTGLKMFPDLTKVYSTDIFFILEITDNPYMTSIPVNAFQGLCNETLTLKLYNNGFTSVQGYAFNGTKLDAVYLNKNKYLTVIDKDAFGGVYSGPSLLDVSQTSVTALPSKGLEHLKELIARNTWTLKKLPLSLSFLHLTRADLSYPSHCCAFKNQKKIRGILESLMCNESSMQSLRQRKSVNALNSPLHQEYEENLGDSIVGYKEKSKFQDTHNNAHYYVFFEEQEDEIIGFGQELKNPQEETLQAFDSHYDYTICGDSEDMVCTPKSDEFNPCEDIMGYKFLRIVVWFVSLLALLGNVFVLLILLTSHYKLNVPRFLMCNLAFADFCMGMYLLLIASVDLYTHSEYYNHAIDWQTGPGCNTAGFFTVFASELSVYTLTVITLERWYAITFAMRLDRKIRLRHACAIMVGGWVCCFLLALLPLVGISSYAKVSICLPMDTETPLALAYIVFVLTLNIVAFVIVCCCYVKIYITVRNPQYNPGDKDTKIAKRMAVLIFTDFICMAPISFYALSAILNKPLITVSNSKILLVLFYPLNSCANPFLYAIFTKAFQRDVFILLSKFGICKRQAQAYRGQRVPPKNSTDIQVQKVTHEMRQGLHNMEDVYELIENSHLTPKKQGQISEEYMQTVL

Broadly, the IC50 is the concentration that inhibits the measured activity by half. A high value points to lower potency. Compound `CNC(=O)N[C@@H]1CC[C@@H](C(F)(F)F)N(Cc2cc(C(F)(F)F)ccc2F)C1=O` [Example A-24, 1-((3R,6S)-1-(2-fluoro-5-(trifluoromethyl)benzyl)-2-oxo-6-(trifluoromethyl)piperidin-3-yl)-3-methylurea] gave an IC50 of less than 3 µM.

`CO[C@@H](C)C(=O)N[C@@H]1CC[C@@H](C(F)(F)F)N(Cc2cc(C(F)(F)F)ccc2F)C1=O` [Example A-25, (S)-N-((3R,6S)-1-(2-fluoro-5-(trifluoromethyl)benzyl)-2-oxo-6-(trifluoromethyl)piperidin-3-yl)-2-methoxypropanamide] came in with an IC50 of more than 30 µM.

With `O=C(NC1CC1)N[C@@H]1CC[C@@H](C(F)F)N(Cc2cc(C(F)(F)F)ccc2F)C1=O` [Example A-26, 1-cyclopropyl-3-((3R,6S)-6-(difluoromethyl)-1-(2-fluoro-5-(trifluoromethyl)benzyl)-2-oxopiperidin-3-yl)urea], the IC50 fell in the range of 3 to 30 µM.

Regarding `CC(=O)N[C@@H]1CC[C@@H](C(F)F)N(Cc2cc(C(F)(F)F)ccc2F)C1=O` [Example A-27, N-((3R,6S)-6-(difluoromethyl)-1-(2-fluoro-5-(trifluoromethyl)benzyl)-2-oxopiperidin-3-yl)acetamide], the IC50 lay within 3 to 30 µM.

For `O=C(N[C@@H]1CC[C@@H](C(F)F)N(Cc2cc(C(F)(F)F)ccc2F)C1=O)C1CC1` [Example A-28, N-((3R,6S)-6-(difluoromethyl)-1-(2-fluoro-5-(trifluoromethyl)benzyl)-2-oxopiperidin-3-yl)cyclopropanecarboxamide], the IC50 was less than 3 µM.

`NC(=O)Nc1cc(Br)cn(Cc2cc(C(F)(F)F)ccc2F)c1=O` [Example B-1, 1-(5-bromo-1-(2-fluoro-5-(trifluoromethyl)benzyl)-2-oxo-1,2-dihydropyridin-3-yl)urea] came in with an IC50 of less than 3 µM.

Consider `NC(=O)Nc1cc(CCC(=O)O)cn(Cc2cc(C(F)(F)F)ccc2F)c1=O` [Example B-2, 3-(1-(2-fluoro-5-(trifluoromethyl)benzyl)-6-oxo-5-ureido-1,6-dihydropyridin-3-yl)propanoic acid], for which the IC50 is more than 30 µM.

In the case of `CC(C)(C)OC(=O)NCCc1cc(NC(N)=O)c(=O)n(Cc2cc(C(F)(F)F)ccc2F)c1` [Example B-3, tert-butyl (2-(1-(2-fluoro-5-(trifluoromethyl)benzyl)-6-oxo-5-ureido-1,6-dihydropyridin-3-yl)ethyl)carbamate], the IC50 is less than 3 µM.

With `Cc1ccc(NC(N)=O)c(=O)n1Cc1cc(C(F)(F)F)ccc1F` [Example B-4, 1-(1-(2-fluoro-5-(trifluoromethyl)benzyl)-6-methyl-2-oxo-1,2-dihydropyridin-3-yl)urea], the IC50 was less than 3 µM.

`Cc1ccc(NC(N)=O)c(=O)n1Cc1cc(C(F)(F)F)cc(Cl)c1F` [Example B-5, 1-(1-(3-chloro-2-fluoro-5-(trifluoromethyl)benzyl)-6-methyl-2-oxo-1,2-dihydropyridin-3-yl)urea] displayed an IC50 of less than 3 µM.

Turning to `NC(=O)Nc1cc(C(F)(F)F)cn(Cc2cc(C(F)(F)F)ccc2F)c1=O` [Example B-6, 1-(1-(2-fluoro-5-(trifluoromethyl)benzyl)-2-oxo-5-(trifluoromethyl)-1,2-dihydropyridin-3-yl)urea], the IC50 was less than 3 µM.

`N#Cc1ccc(NC(N)=O)c(=O)n1Cc1cc(C(F)(F)F)ccc1F` [Example B-7, 1-(6-cyano-1-(2-fluoro-5-(trifluoromethyl)benzyl)-2-oxo-1,2-dihydropyridin-3-yl)urea] showed an IC50 of less than 3 µM.

Compound `Cc1ncc(NC(N)=O)c(=O)n1Cc1cc(C(F)(F)F)cc(Cl)c1F` [Example B-8, 1-(1-(3-chloro-2-fluoro-5-(trifluoromethyl)benzyl)-2-methyl-6-oxo-1,6-dihydropyrimidin-5-yl)urea] gave an IC50 of less than 3 µM.

Compound `Cc1cnc(NC(N)=O)c(=O)n1Cc1cc(C(F)(F)F)cc(Cl)c1F` [Example B-9, 1-(4-(3-chloro-2-fluoro-5-(trifluoromethyl)benzyl)-5-methyl-3-oxo-3,4-dihydropyrazin-2-yl)urea] showed an IC50 of 3 to 30 µM.

Regarding `CNC(=O)Nc1ccc(C)n(Cc2cc(C(F)(F)F)cc(Cl)c2F)c1=O` [Example B-10, 1-(1-(3-chloro-2-fluoro-5-(trifluoromethyl)benzyl)-6-methyl-2-oxo-1,2-dihydropyridin-3-yl)-3-methylurea], the IC50 is less than 3 µM.

For the compound `Cc1ccc(NC(=O)NC2CC2)c(=O)n1Cc1cc(C(F)(F)F)cc(Cl)c1F` [Example B-11, 1-(1-(3-chloro-2-fluoro-5-(trifluoromethyl)benzyl)-6-methyl-2-oxo-1,2-dihydropyridin-3-yl)-3-cyclopropylurea], the IC50 was less than 3 µM.

`Cc1cccc(CN2C(=O)[C@H](NC(N)=O)Cc3ccccc32)c1` [Example C-1, (R)-1-(1-(3-methylbenzyl)-2-oxo-1,2,3,4-tetrahydroquinolin-3-yl)urea]: the half-inhibitory concentration (IC50) was 3 to 30 µM.

Compound `N#Cc1cccc(CN2C(=O)[C@H](NC(N)=O)Cc3ccccc32)c1` [Example C-2, (R)-1-(1-(3-cyanobenzyl)-2-oxo-1,2,3,4-tetrahydroquinolin-3-yl)urea] came in with an IC50 of more than 30 µM.

`COc1cccc(CN2C(=O)[C@H](NC(N)=O)Cc3ccccc32)c1` [Example C-3, (R)-1-(1-(3-methoxybenzyl)-2-oxo-1,2,3,4-tetrahydroquinolin-3-yl)urea] showed an IC50 of more than 30 µM.

With `NC(=O)N[C@@H]1Cc2ccccc2N(Cc2cc(C(F)F)ccc2F)C1=O` [Example C-4, (R)-1-(1-(5-(difluoromethyl)-2-fluorobenzyl)-2-oxo-1,2,3,4-tetrahydroquinolin-3-yl)urea], the IC50 is less than 3 µM.

Compound `NC(=O)N[C@@H]1Cc2ccccc2N(Cc2cccc3c2OC(F)(F)O3)C1=O` [Example C-5, (R)-1-(1-((2,2-difluorobenzo[d][1,3]dioxol-4-yl)methyl)-2-oxo-1,2,3,4-tetrahydroquinolin-3-yl)urea] returned an IC50 of less than 3 µM.

Regarding `Cc1ccc2c(c1)N(Cc1cccc(C(F)(F)F)c1)C(=O)[C@H](NC(N)=O)C2` [Example C-6, (R)-1-(7-methyl-2-oxo-1-(3-(trifluoromethyl)benzyl)-1,2,3,4-tetrahydroquinolin-3-yl)urea], the half-maximal inhibitory concentration (IC50) was less than 3 µM.

On to `COc1ccc2c(c1)N(Cc1cccc(C(F)(F)F)c1)C(=O)[C@H](NC(N)=O)C2` [Example C-7, (R)-1-(7-methoxy-2-oxo-1-(3-(trifluoromethyl)benzyl)-1,2,3,4-tetrahydroquinolin-3-yl)urea], for which the IC50 was less than 3 µM.

Take `N#Cc1ccc2c(c1)N(Cc1cccc(C(F)(F)F)c1)C(=O)[C@H](NC(N)=O)C2` [Example C-8, (R)-1-(7-cyano-2-oxo-1-(3-(trifluoromethyl)benzyl)-1,2,3,4-tetrahydroquinolin-3-yl)urea]: the IC50 lay in the range of 3 to 30 µM.

Compound `NC(=O)N[C@@H]1Cc2c(F)cccc2N(Cc2cc(C(F)(F)F)ccc2F)C1=O` [Example C-9, (R)-1-(5-fluoro-1-(2-fluoro-5-(trifluoromethyl)benzyl)-2-oxo-1,2,3,4-tetrahydroquinolin-3-yl)urea] gave an IC50 of less than 3 µM.

`NC(=O)N[C@@H]1Cc2ccc(C(F)F)cc2N(Cc2cc(C(F)(F)F)ccc2F)C1=O` [Example C-10, (R)-1-(7-(difluoromethyl)-1-(2-fluoro-5-(trifluoromethyl)benzyl)-2-oxo-1,2,3,4-tetrahydroquinolin-3-yl)urea] yielded an IC50 of less than 3 µM.

On to `NC(=O)N[C@@H]1Cc2ccc(F)cc2N(Cc2cc(C(F)F)ccc2F)C1=O` [Example C-11, (R)-1-(1-(5-(difluoromethyl)-2-fluorobenzyl)-7-fluoro-2-oxo-1,2,3,4-tetrahydroquinolin-3-yl)urea], for which the IC50 is less than 3 µM.

As to `NC(=O)N[C@@H]1Cc2ccc(Cl)cc2N(Cc2cc(C(F)F)ccc2F)C1=O` [Example C-12, (R)-1-(7-chloro-1-(5-(difluoromethyl)-2-fluorobenzyl)-2-oxo-1,2,3,4-tetrahydroquinolin-3-yl)urea], the concentration for half-maximal inhibition (IC50) was less than 3 µM.

Compound `Cc1ccc2c(c1)N(Cc1cc(C(F)F)ccc1F)C(=O)[C@H](NC(N)=O)C2` [Example C-13, (R)-1-(1-(5-(difluoromethyl)-2-fluorobenzyl)-7-methyl-2-oxo-1,2,3,4-tetrahydroquinolin-3-yl)urea] displayed an IC50 of less than 3 µM.

Compound `NC(=O)N[C@@H]1Cc2ccc(C(F)F)cc2N(Cc2cc(C(F)F)ccc2F)C1=O` [Example C-14, (R)-1-(7-(difluoromethyl)-1-(5-(difluoromethyl)-2-fluorobenzyl)-2-oxo-1,2,3,4-tetrahydroquinolin-3-yl)urea] displayed an IC50 of less than 3 µM.
